Assay results as given in patent US20250257060A1, “OXADIAZOLE COMPOUND, PHARMACEUTICAL COMPOSITION COMPRISING SAME, AND USE THEREOF” (SUZHOU GENHOUSE BIO CO., LTD., priority 2022, published 2025).
Where two headings read alike, the source gives them in different places. Values belong to the molecule of their own block, whether it stands above or below them.

Tests used:
HDAC6 = HDAC6 (Homo sapiens (Human), UniProt Q9UBN7); test: HDAC6 enzymatic activity assay; type: biochemical
Description: The inhibitory activity of the compounds of the present application against HDAC6 was evaluated by an enzymatic activity assay. HDAC6 (Abcam), test compounds, and a 20 µM substrate solution (Ac-GAK(Ac)-AMC) were each added to a 384-well plate, and the plate was incubated at 37° C. for 30 min. […] and […] were added, and the plate was incubated at room temperature for 15 min. […] IC50 was obtained by fitting using GraphPadPrism 7.0 software.

[1] = Brain-to-blood drug concentration ratio of mice; type: in vivo; conditions: mouse, 5 mg/kg PO
Description: On the day of administration, mice were weighed for actual body weight and the administration volume was calculated. In each group of 9 mice, the compound was administered by single intravenous (IV) injection or intragastric (PO) administration. Whole blood samples were collected via the orbit at prescribed time points. After blood sample collection, the samples were immediately transferred to labeled commercial sample tubes containing K2-EDTA (0.85-1.15 mg), followed by centrifugation (3200×g, 4° C., 10 min) and plasma collection. The plasma was transferred to a pre-cooled centrifuge tube, frozen in dry ice, and stored in an ultra-low temperature freezer at −60° C. or lower until the LC-MS/MS analysis. 20 μL of a plasma sample or brain tissue homogenate was taken and 80 μL of an internal standard solution (50 ng/mL solution of propafenone in acetonitrile) was added. The plate was sealed with a film sealer at 165° C., shaken on a micro oscillator (maximum vibration speed) for 10 min, and centrifuged at 4000 rpm for 20 min using a low-speed benchtop centrifuge, 10 μL of supernatant was transferred and 90 μL of acetonitrile was added. The mixture was vortexed and mixed well, and then the plate was sealed with the film sealer at 165° C. After the mixture was vortexed and mixed well, 1 μL of supernatant was taken for LC-MS/MS analysis. Plasma drug concentration data for the compounds were processed in a non-compartmental model using WinNonlin Version 6.3 (Pharsight, Mountain View, CA) pharmacokinetic software. The relevant pharmacokinetic parameters were calculated by a linear logarithmic trapezoid method.
Data processing: brain-to-blood drug concentration ratio of mice at the same time point=drug concentration in brain tissue/drug concentration in plasma

[2] = Pharmacokinetic test in mice (IV and PO); type: in vivo, BALB/c mice; conditions: for Cmax / AUC(0-inf) / AUC(0-t) / MRT inf / Vd / Tmax: BALB/c, mouse, plasma; for MRT inf: read-out: MRT(0-∞); for Vd: read-out: Vz
Description: In this example, the pharmacokinetic behavior of the compounds after intravenous injection (IV) and intragastric (PO) administration in BALB/c mice was tested.
On the day of administration, mice were weighed for actual body weight and the administration volume was calculated. Each compound was tested in two groups with 3 mice in each group, one group administered by single intravenous injection and the other group of mice by single intragastric administration. Whole blood samples were collected via the orbit at prescribed time points (0.25 h, 0.5 h, 1 h, 2 h, 4 h, 8 h, and 24 h after administration). After blood sample collection, the samples were immediately transferred to labeled commercial sample tubes containing K2-EDTA (0.85-1.15 mg), followed by centrifugation (3200×g, 4° C., 10 min) and plasma collection. The plasma was transferred to a pre-cooled centrifuge tube, frozen in dry ice, and stored in an ultra-low temperature freezer at −60° C. or lower until the LC-MS/MS analysis.
Plasma concentrations were determined by a LC-MS/MS method. Plasma drug concentration data for compounds 1 and 2 were processed in a non-compartmental model using WinNonlin Version 6.3 (Pharsight, Mountain View, CA) pharmacokinetic software. The relevant pharmacokinetic parameters were calculated by a linear logarithmic trapezoid method.

[3] = brain, read-out: Brain drug concentration
[4] = plasma, read-out: Blood drug concentration

HDAC6, sequence (Q9UBN7 whole entry): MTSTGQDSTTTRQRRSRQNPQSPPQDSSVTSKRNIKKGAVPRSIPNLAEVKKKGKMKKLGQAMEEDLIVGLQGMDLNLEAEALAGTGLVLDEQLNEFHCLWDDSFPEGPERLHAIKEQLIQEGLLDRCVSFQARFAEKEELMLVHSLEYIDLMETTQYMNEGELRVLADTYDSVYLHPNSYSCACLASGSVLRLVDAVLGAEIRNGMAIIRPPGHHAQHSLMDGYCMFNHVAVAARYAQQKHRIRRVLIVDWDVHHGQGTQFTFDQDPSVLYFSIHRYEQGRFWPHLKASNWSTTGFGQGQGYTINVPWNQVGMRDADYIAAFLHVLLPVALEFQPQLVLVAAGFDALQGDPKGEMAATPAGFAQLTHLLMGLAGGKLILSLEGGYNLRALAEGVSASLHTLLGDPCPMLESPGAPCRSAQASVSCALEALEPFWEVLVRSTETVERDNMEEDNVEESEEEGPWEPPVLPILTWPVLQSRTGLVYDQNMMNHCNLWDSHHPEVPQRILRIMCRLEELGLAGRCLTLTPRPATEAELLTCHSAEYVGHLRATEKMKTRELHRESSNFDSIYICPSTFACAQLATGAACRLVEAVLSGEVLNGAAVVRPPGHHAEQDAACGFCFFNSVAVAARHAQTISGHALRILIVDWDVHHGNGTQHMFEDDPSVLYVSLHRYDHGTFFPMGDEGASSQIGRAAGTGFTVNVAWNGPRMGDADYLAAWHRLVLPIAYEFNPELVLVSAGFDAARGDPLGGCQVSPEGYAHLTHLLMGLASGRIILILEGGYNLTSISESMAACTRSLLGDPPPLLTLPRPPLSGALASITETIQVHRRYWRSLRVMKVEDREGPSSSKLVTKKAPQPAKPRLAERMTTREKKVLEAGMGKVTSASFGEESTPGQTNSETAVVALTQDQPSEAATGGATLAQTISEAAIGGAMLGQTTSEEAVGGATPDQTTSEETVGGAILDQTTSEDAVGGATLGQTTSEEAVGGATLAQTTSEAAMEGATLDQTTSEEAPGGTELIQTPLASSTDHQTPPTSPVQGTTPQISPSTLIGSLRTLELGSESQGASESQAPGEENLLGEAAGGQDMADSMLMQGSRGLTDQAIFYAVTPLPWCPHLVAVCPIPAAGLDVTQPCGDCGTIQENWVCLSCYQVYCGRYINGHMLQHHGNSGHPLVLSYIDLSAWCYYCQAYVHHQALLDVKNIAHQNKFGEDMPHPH

SMILES: O=S1(=O)c2cc(-c3nnc(C(F)F)o3)ccc2CN1[C@@H](c1ncccn1)[C@H](O)c1ncccn1 [Compound 103j-A]
IC50 (HDAC6): 285 nM

SMILES: O=S1(=O)c2cc(-c3nnc(C(F)F)o3)ccc2CN1[C@@H](c1cnccn1)[C@H](O)c1cnccn1 (single isomer, unassigned) [Compound 99j-A]
IC50 (HDAC6): 148 nM

SMILES: CNC(=O)N[C@@H]1CCCC[C@H]1N1Cc2ccc(-c3nnc(C(F)F)o3)cc2S1(=O)=O [Compound 94]
IC50 (HDAC6): 203 nM

SMILES: O=S1(=O)c2cc(-c3nnc(C(F)F)o3)ccc2CN1c1ccccc1-c1ccccn1 [Compound 117]
IC50 (HDAC6): 449 nM

SMILES: O=S1(=O)c2cc(-c3nnc(C(F)F)o3)ccc2CN1[C@@H](c1ccc(F)cn1)[C@H](O)c1ccc(F)cn1 (single isomer, unassigned) [Compound 88j-B]
IC50 (HDAC6): 668 nM

SMILES: O=S1(=O)c2cc(-c3nnc(C(F)F)o3)ccc2CN1[C@@H](c1ccc(F)cn1)[C@H](O)c1ccc(F)cn1 (single isomer, unassigned) [Compound 88j-A-A]
IC50 (HDAC6): 584 nM

SMILES: O=S1(=O)c2cc(-c3nnc(C(F)F)o3)ccc2CN1[C@@H](c1cnccn1)[C@H](O)c1cnccn1 (single isomer, unassigned) [Compound 99j-B]
IC50 (HDAC6): 138 nM

SMILES: O=S1(=O)c2cc(-c3nnc(C(F)F)o3)ccc2CN1[C@@H](c1ccccn1)[C@H](O)c1ccc(F)cn1 (single isomer, unassigned) [Compound 84j-B]
IC50 (HDAC6): 113 nM

SMILES: CS(=O)(=O)N[C@@H]1CCCC[C@H]1N1Cc2ccc(-c3nnc(C(F)F)o3)cc2S1(=O)=O [Compound 24]
IC50 (HDAC6): 194 nM

SMILES: O=C(NC1CC1)N[C@@H]1CCCC[C@H]1N1Cc2ccc(-c3nnc(C(F)F)o3)cc2S1(=O)=O [Compound 109]
IC50 (HDAC6): 89.8 nM

SMILES: O=S1(=O)c2cc(-c3nnc(C(F)F)o3)ccc2CN1[C@@H]1CCCC[C@H]1NS(=O)(=O)C(F)(F)F [Compound 116]
IC50 (HDAC6): 173 nM

SMILES: CC(C)(C)OC(=O)N[C@@H]1CCCC[C@H]1N1Cc2ccc(-c3nnc(C(F)F)o3)cc2S1(=O)=O [Compound 20]
IC50 (HDAC6): 224 nM

SMILES: O=C(N[C@@H]1CCCC[C@H]1N1C(=O)c2ccc(-c3nnc(C(F)F)o3)cc2S1(=O)=O)C(F)F [Compound 6]
IC50 (HDAC6): 395 nM

SMILES: O=C(NCC1CC1)N[C@@H]1CCCC[C@H]1N1Cc2ccc(-c3nnc(C(F)F)o3)cc2S1(=O)=O [Compound 110]
IC50 (HDAC6): 325 nM

SMILES: O=S1(=O)c2cc(-c3nnc(C(F)F)o3)ccc2CN1[C@H](c1ncccn1)[C@H](O)c1ncccn1 [Compound 103j-D]
IC50 (HDAC6): 231 nM

SMILES: O=S1(=O)c2cc(-c3nnc(C(F)F)o3)ccc2CN1[C@@H]1CCCC[C@H]1O [Compound 21]
IC50 (HDAC6): 742 nM

SMILES: COC(=O)N[C@@H]1CCCC[C@H]1N1Cc2ccc(-c3nnc(C(F)F)o3)cc2S1(=O)=O [Compound 92]
IC50 (HDAC6): 164 nM

SMILES: O=S1(=O)c2cc(-c3nnc(C(F)F)o3)ccc2CN1Cc1cccc(Cl)c1 [Compound 60]
IC50 (HDAC6): 490 nM

SMILES: O=C(N[C@@H]1CCCC[C@H]1N1Cc2ccc(-c3nnc(C(F)F)o3)cc2S1(=O)=O)N1CCCC1 [Compound 112]
IC50 (HDAC6): 141 nM

SMILES: O=S1(=O)c2cc(-c3nnc(C(F)F)o3)ccc2CN1[C@@H](c1ccc(F)cn1)[C@H](O)c1ccc(F)cn1 (single isomer, unassigned) [Compound 88j-A]
IC50 (HDAC6): 132 nM

SMILES: O=S1(=O)c2cc(-c3nnc(C(F)F)o3)ccc2CN1[C@@H]1COCC[C@H]1O [Compound 49]
IC50 (HDAC6): 820 nM

SMILES: CC(F)(F)C(=O)N[C@@H]1CCCC[C@H]1N1Cc2c(F)cc(-c3nnc(C(F)F)o3)cc2S1(=O)=O [Compound 39]
IC50 (HDAC6): 261 nM

SMILES: O=C(N[C@@H]1CCCC[C@H]1N1Cc2ccc(-c3nnc(C(F)F)o3)cc2S1(=O)=O)C(F)(F)C(F)(F)F [Compound 3]
IC50 (HDAC6): 46.1 nM

SMILES: O=S1(=O)c2cc(-c3nnc(C(F)F)o3)ccc2CN1[C@H](c1ncccn1)[C@@H](O)c1ncccn1 [Compound 103j-B]
IC50 (HDAC6): 108 nM

SMILES: O=C(N[C@@H]1CCCC[C@H]1N1Cc2c(F)cc(-c3nnc(C(F)F)o3)cc2S1(=O)=O)C(F)F [Compound 40]
IC50 (HDAC6): 252 nM

SMILES: O=S1(=O)c2cc(-c3nnc(C(F)F)o3)ccc2CN1[C@@H](c1cnccn1)[C@H](O)c1cnccn1 (single isomer, unassigned) [Compound 99j-A-B]
IC50 (HDAC6): 73.9 nM

Further lines, results first:

IC50 (HDAC6): 399 nM
SMILES: Cn1cc(-c2ccccc2N2Cc3ccc(-c4nnc(C(F)F)o4)cc3S2(=O)=O)cn1 [Compound 72]

IC50 (HDAC6): 118 nM
SMILES: Cn1cc([C@H]([C@@H](O)c2ccccc2)N2Cc3ccc(-c4nnc(C(F)F)o4)cc3S2(=O)=O)cn1 (single isomer, unassigned) [Compound 79i-A]

IC50 (HDAC6): 66.8 nM
SMILES: Cn1cc([C@@H](O)[C@H](c2cnn(C)c2)N2Cc3ccc(-c4nnc(C(F)F)o4)cc3S2(=O)=O)cn1 (single isomer, unassigned) [Compound 95j-B-A]

IC50 (HDAC6): 231 nM
SMILES: Cn1cc([C@@H](O)[C@H](c2cnn(C)c2)N2Cc3ccc(-c4nnc(C(F)F)o4)cc3S2(=O)=O)cn1 (single isomer, unassigned) [Compound 95j-A]

IC50 (HDAC6): 210 nM
SMILES: O=S1(=O)c2cc(-c3nnc(C(F)F)o3)ccc2CN1[C@@H](c1ccccn1)[C@H](O)c1ccc(F)cn1 (single isomer, unassigned) [Compound 84j-A-A]

IC50 (HDAC6): 29.9 nM
SMILES: Cn1cc([C@@H](O)[C@H](c2cnn(C)c2)N2Cc3ccc(-c4nnc(C(F)F)o4)cc3S2(=O)=O)cn1 (single isomer, unassigned) [Compound 95j-B]

IC50 (HDAC6): 183 nM
SMILES: Cn1cc([C@@H](O)[C@H](c2cnn(C)c2)N2Cc3ccc(-c4nnc(C(F)F)o4)cc3S2(=O)=O)cn1 (single isomer, unassigned) [Compound 95j-B-B]

concentration at 2 h [1, 3]: 298 ng/mL
Kp at 2 h ([1]; brain/plasma): 0.28
concentration at 2 h [1, 4]: 1060 ng/mL
Cmax ([2]; po, 5 mg/kg, read-out: C0/Cmax): 5.75 µM
AUC(0-inf) ([2]; mice, IV 1 mg/kg): 1.77 µM·h
AUC(0-t) ([2]; mice, IV 1 mg/kg): 1.62 µM·h
Cmax ([2]; mice, IV 1 mg/kg (C0)): 1.89 µM
MRT inf ([2]; mice, IV 1 mg/kg): 0.8 h
Vd ([2]; mice, IV 1 mg/kg): 0.9 L/kg
AUC(0-inf) ([2]; mice, PO 5 mg/kg): 15.5 µM·h
AUC(0-t) ([2]; mice, PO 5 mg/kg): 15.1 µM·h
Tmax ([2]; mice, PO 5 mg/kg): 1 h
MRT inf ([2]; mice, PO 5 mg/kg): 2.3 h
CLz ([2]; mice, IV 1 mg/kg): 18.3 mL/min/kg
t½z ([2]; mice, IV 1 mg/kg): 0.6 h
F ([2]; mice, PO 5 mg/kg): 175.8%
t½z ([2]; mice, PO 5 mg/kg): 1.5 h
SMILES: O=S1(=O)c2cc(-c3nnc(C(F)F)o3)ccc2CN1[C@H](c1ccccn1)[C@H](O)c1ccc(F)cn1 [Compound 87]

IC50 (HDAC6): 75.9 nM
SMILES: Cn1cc([C@H]([C@@H](O)c2ccccc2)N2Cc3ccc(-c4nnc(C(F)F)o4)cc3S2(=O)=O)cn1 (single isomer, unassigned) [Compound 79i-B]

IC50 (HDAC6): 23.1 nM
SMILES: O=S1(=O)c2cc(-c3nnc(C(F)F)o3)ccc2CN1[C@@H](c1ccccn1)[C@H](O)c1ccc(F)cn1 (single isomer, unassigned) [Compound 84j-A-B]

IC50 (HDAC6): 137 nM
SMILES: O=S1(=O)c2cc(-c3nnc(C(F)F)o3)ccc2CN1C(c1ccccn1)[C@H](O)c1ccccn1 (stereo partly shown) [Compound 70i-A]

concentration at 2 h [1, 3]: 160 ng/mL
concentration at 8 h ([1]; brain, 8 h, read-out: Brain drug concentration): 72 ng/mL
Kp at 2 h ([1]; brain/plasma): 0.08
Kp at 8 h ([1]; brain/plasma, 8 h): 0.1
concentration at 2 h [1, 4]: 1910 ng/mL
concentration at 8 h ([1]; plasma, 8 h, read-out: Blood drug concentration): 695 ng/mL
Cmax ([2]; po, 5 mg/kg, read-out: C0/Cmax): 7.17 µM
AUC(0-inf) ([2]; mice, IV 1 mg/kg): 5.28 µM·h
AUC(0-t) ([2]; mice, IV 1 mg/kg): 5.05 µM·h
Cmax ([2]; mice, IV 1 mg/kg (C0)): 1.91 µM
MRT inf ([2]; mice, IV 1 mg/kg): 2.6 h
Vd ([2]; mice, IV 1 mg/kg): 1 L/kg
AUC(0-inf) ([2]; mice, PO 5 mg/kg): 34 µM·h
AUC(0-t) ([2]; mice, PO 5 mg/kg): 25.5 µM·h
Tmax ([2]; mice, PO 5 mg/kg): 1 h
MRT inf ([2]; mice, PO 5 mg/kg): 5.6 h
CLz ([2]; mice, IV 1 mg/kg): 6.7 mL/min/kg
t½z ([2]; mice, IV 1 mg/kg): 1.8 h
F ([2]; mice, PO 5 mg/kg): 101.2%
t½z ([2]; mice, PO 5 mg/kg): 4.2 h
SMILES: Cn1cc([C@@H]([C@H](O)c2ccccc2)N2Cc3ccc(-c4nnc(C(F)F)o4)cc3S2(=O)=O)cn1 [Compound 80]
